Measured values from US20250313563A1, “GLYCOGEN SYNTHASE KINASE 3 INHIBITORS AND USES THEREOF” (The Broad Institute, Inc., priority 2022, published 2025).
Read-outs that look alike come from different tables or passages of the source.

Tests used:
[1] = biological target: GSK3b (GST-full length GSK3b) (Homo sapiens (Human), UniProt P49841); experiment: GSK3b TR-FRET kinase assay; type: biochemical
Procedure, shortened: (§1)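 Compound was preincubated 30 min with 1 nM GST-GSK3 enzyme. Reaction ran 100 min at ambient temperature in Tris pH 7.5/MgCl2 with 200 nM biotinylated pS645-glycogen synthase 631-650 peptide and ATP (4 μM GSK3α, 2 μM GSK3b, or 1 mM). The EDTA-stopped reaction was read by TR-FRET (Tb-anti-pSer641/streptavidin-d2), and IC50s were fitted.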

[2] = biological target: GSK3α (GST-full length GSK3α) (Homo sapiens (Human), UniProt P49840); experiment: GSK3α TR-FRET kinase assay; type: biochemical
Procedure, shortened: as §1

[3] = 1 nM GSK3b, 2 μM ATP, 30 minute preincubation, geometric mean, read-out: GSK3-B TR-FRET BIOCHEMICAL (TR-FRET), GMean, IC50
[4] = 1 nM GSK3α, 4 μM ATP, 30 minute preincubation, geometric mean, read-out: GSK3-A TR-FRET BIOCHEMICAL (TR-FRET), GMean, IC50
[5] = read-out: GSK3-B (TR-FRET 1 mM ATP), GMean, IC50, 1 mM ATP, geometric mean
[6] = read-out: GSK3-A (TR-FRET 1 mM ATP), GMean, IC50, 1 mM ATP, geometric mean
[7] = 1 nM GSK3b, 2 μM ATP, 30 minute preincubation, Table 16, read-out: GSK3-B TR-FRET BIOCHEMICAL (TR-FRET)
[8] = 1 nM GSK3α, 4 μM ATP, 30 minute preincubation, Table 16, read-out: GSK3-A TR-FRET BIOCHEMICAL (TR-FRET)
[9] = 1 nM GSK3b, 2 μM ATP, 30 minute preincubation, read-out: GSK3-B TR-FRET BIOCHEMICAL (TR-FRET), IC50
[10] = 1 nM GSK3α, 4 μM ATP, 30 minute preincubation, read-out: GSK3-A TR-FRET BIOCHEMICAL (TR-FRET), IC50

GSK3b (GST-full length GSK3b), sequence (P49841 whole entry): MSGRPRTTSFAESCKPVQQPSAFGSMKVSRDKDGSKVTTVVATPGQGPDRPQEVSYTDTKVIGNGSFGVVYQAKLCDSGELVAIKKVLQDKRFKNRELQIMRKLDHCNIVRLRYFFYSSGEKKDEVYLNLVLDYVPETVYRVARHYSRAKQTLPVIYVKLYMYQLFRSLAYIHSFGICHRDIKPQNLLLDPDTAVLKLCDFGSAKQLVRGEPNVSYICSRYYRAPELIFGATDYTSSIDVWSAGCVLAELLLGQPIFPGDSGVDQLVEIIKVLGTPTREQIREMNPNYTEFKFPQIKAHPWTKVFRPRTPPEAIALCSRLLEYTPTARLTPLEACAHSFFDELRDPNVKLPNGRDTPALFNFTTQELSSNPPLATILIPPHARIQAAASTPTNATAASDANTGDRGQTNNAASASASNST
GSK3α (GST-full length GSK3α), sequence (P49840 whole entry): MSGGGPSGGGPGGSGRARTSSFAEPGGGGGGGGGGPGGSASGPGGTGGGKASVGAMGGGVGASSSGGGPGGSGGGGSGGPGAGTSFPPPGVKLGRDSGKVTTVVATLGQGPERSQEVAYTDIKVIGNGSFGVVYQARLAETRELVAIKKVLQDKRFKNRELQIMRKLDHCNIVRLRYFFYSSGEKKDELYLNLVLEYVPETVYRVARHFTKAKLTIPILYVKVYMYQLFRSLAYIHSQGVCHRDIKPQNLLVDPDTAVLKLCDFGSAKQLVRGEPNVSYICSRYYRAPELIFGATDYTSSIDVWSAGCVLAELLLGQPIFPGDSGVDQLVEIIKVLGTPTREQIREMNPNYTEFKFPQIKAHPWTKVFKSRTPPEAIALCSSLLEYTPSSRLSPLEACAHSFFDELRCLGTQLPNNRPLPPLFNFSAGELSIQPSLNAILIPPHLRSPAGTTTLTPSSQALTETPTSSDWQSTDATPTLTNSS

IC50 [1, 3] [nM] | IC50 [2, 4] [nM] | also measured | Structure (SMILES)
≤ 100 | ≤ 100 |  | CC[C@]1(c2cccc(-c3ccncc3C)c2)C2=C(CC(C)(C)NC2=O)Nc2[nH]nc(C(F)(F)F)c21 [Compound 947812]
 |  | IC50 ([1]; 1 nM GSK3b, 2 μM ATP, 30 minute preincubation, Table 16, read-out: GSK3-B TR-FRET BIOCHEMICAL (TR-FRET), IC50): 1000 to 5000 nM; IC50 ([2]; 1 nM GSK3α, 4 μM ATP, 30 minute preincubation, Table 16, read-out: GSK3-A TR-FRET BIOCHEMICAL (TR-FRET), IC50): 1000 to 5000 nM | CC1(C)CC(=O)C2=C(C1)Nc1n[nH]cc1C21CN(c2cccnc2)C1 [Compound 947813]
≤ 100 | ≤ 100 | IC50 [1, 5]: ≤ 100 nM; IC50 [2, 6]: ≤ 100 nM | CCC1(c2cccc(-c3ccncc3C)c2)C2=C(CC(C)(C)NC2=O)Nc2n[nH]c(C(F)(F)F)c21 (stereo not drawn) [Compound 947814]
 |  | IC50 [1, 7]: > 5000 nM; IC50 [2, 8]: 1000 to 5000 nM | CC[C@@]1(c2cccc(-c3ccnc(CCO)c3)c2)C2=C(CC(C)(C)CC2=O)Nc2n[nH]cc21 [Compound 947816]
≤ 100 | ≤ 100 |  | CC[C@@]1(c2cccc(-c3cnn4c3CCCC4)c2)C2=C(CC(C)(C)NC2=O)Nc2n[nH]c(C)c21 [Compound 947817]
 |  | IC50 [1, 7]: > 5000 nM; IC50 [2, 8]: 100 to 1000 nM | CCC1(c2cccc(Oc3ncccn3)c2)C2=C(CC(C)(C)CC2=O)Nc2n[nH]cc21 (stereo not drawn) [Compound 947818]
100 to 1000 | 100 to 1000 |  | CC[C@]1(c2cccc(-c3cncn3C)c2)C2=C(CC(C)(C)NC2=O)Nc2n[nH]cc21 [Compound 947820]
≤ 100 | ≤ 100 |  | CC[C@@]1(c2cccc(-c3ccncc3F)c2)C2=C(CC(C)(C)NC2=O)Nc2n[nH]c(C)c21 [Compound 947821]
> 5000 | 100 to 1000 |  | CC[C@]1(c2cccc(-c3cc(C)ncc3F)c2)C2=C(CC(C)(C)NC2=O)Nc2n[nH]cc21 [Compound 947822]
 |  | IC50 [1, 7]: 1000 to 5000 nM; IC50 [2, 8]: 100 to 1000 nM | CCC1(c2cccc(-c3cnnn3C)c2)C2=C(CC(C)(C)CC2=O)Nc2n[nH]cc21 (stereo not drawn) [Compound 947824]
≤ 100 | ≤ 100 |  | CC[C@]1(c2cccc(N(C)c3ncccn3)c2)C2=C(CC(C)(C)NC2=O)Nc2n[nH]cc21 [Compound 947826]
100 to 1000 | ≤ 100 | IC50 [1, 9]: 100 to 1000 nM; IC50 [2, 10]: ≤ 100 nM | CC1(C)CC2=C(C(=O)N1)C1(CCN(S(=O)(=O)c3cnn(C(C)(C)C)c3)CC1)c1c[nH]nc1N2 [Compound 947835]
100 to 1000 | ≤ 100 | IC50 [1, 9]: 100 to 1000 nM; IC50 [2, 10]: ≤ 100 nM | CCn1ccc(S(=O)(=O)N2CCC3(CC2)C2=C(CC(C)(C)NC2=O)Nc2n[nH]cc23)n1 [Compound 947836]
≤ 100 | ≤ 100 | IC50 [1, 9]: ≤ 100 nM; IC50 [2, 10]: ≤ 100 nM | CCc1ncc(S(=O)(=O)N2CCC3(CC2)C2=C(CC(C)(C)NC2=O)Nc2n[nH]cc23)s1 [Compound 947837]
≤ 100 | ≤ 100 |  | CCC1(c2cccc(-c3ccnc(C)c3)c2)C2=C(CC(C)(C)NC2=O)Nc2n[nH]c(C(F)(F)F)c21 (stereo not drawn) [Compound 947858]
≤ 100 | ≤ 100 | IC50 [1, 5]: ≤ 100 nM; IC50 [2, 6]: ≤ 100 nM | CCC1(c2cccc(S(=O)(=O)C3CC3)c2)C2=C(CC(C)(C)NC2=O)Nc2n[nH]c(C(F)(F)F)c21 (stereo not drawn) [Compound 947859]
≤ 100 | ≤ 100 | IC50 [1, 5]: 100 to 1000 nM; IC50 [2, 6]: ≤ 100 nM | CCC1(c2cccc(N3CCCC3)c2)C2=C(CC(C)(C)NC2=O)Nc2n[nH]c(C(F)(F)F)c21 (stereo not drawn) [Compound 947860]
≤ 100 | ≤ 100 | IC50 [1, 5]: 100 to 1000 nM; IC50 [2, 6]: ≤ 100 nM | CCC1(c2cccc(-c3ccnc4c3CCC4)c2)C2=C(CC(C)(C)NC2=O)Nc2n[nH]c(C(F)(F)F)c21 (stereo not drawn) [Compound 947862]
≤ 100 | ≤ 100 |  | CCC1(c2cccc(N3CCOCC3)c2)C2=C(CC(C)(C)NC2=O)Nc2n[nH]c(C(F)(F)F)c21 (stereo not drawn) [Compound 947863]
100 to 1000 | ≤ 100 |  | CCC1(c2cccc(C(F)F)c2)C2=C(CC(C)(C)NC2=O)Nc2n[nH]cc21 (stereo not drawn) [Compound 947864]
≤ 100 | ≤ 100 |  | CCC1(c2cccc(-c3ccncc3F)c2)C2=C(CC(C)(C)NC2=O)Nc2n[nH]c(C(F)(F)F)c21 (stereo not drawn) [Compound 947866]
 |  | IC50 [1, 7]: ≤ 100 nM; IC50 [1, 5]: ≤ 100 nM; IC50 [2, 8]: ≤ 100 nM; IC50 [2, 6]: ≤ 100 nM | CCC1(c2cccc(OC(C)C)c2)C2=C(CC(C)(C)CC2=O)Nc2[nH]nc(C(F)(F)F)c21 (stereo not drawn) [Compound 947867]
≤ 100 | ≤ 100 | IC50 [1, 5]: 1000 to 5000 nM; IC50 [2, 6]: ≤ 100 nM | CC[C@]1(c2cccc(-c3ccncc3F)c2)C2=C(CC(C)(C)NC2=O)Nc2n[nH]cc21 [Compound 947869]
100 to 1000 | ≤ 100 |  | CCC1(c2cccc(S(=O)(=O)C(C)C)c2)C2=C(CC(C)(C)NC2=O)Nc2[nH]nc(C)c21 (stereo not drawn) [Compound 947870]

IC50 [1, 3] [nM] | IC50 [2, 4] [nM] | also measured | Structure (SMILES)
100 to 1000 | ≤ 100 |  | CC[C@]1(c2cccc(-c3cnn(C)c3)c2)C2=C(CC(C)(C)NC2=O)Nc2n[nH]c(C(F)(F)F)c21 [Compound 947871]
 |  | IC50 [1, 7]: 1000 to 5000 nM; IC50 [2, 8]: 100 to 1000 nM | CC[C@@]1(c2cccc(OC(C)C)c2)C2=C(CC(C)(C)CC2=O)Nc2n[nH]c(C(F)(F)F)c21 [Compound 947872]
1000 to 5000 | 100 to 1000 |  | CCC1(c2cccc(-c3ccncc3F)c2)C2=C(CC(C)(C)NC2=O)Nc2n[nH]cc21 (stereo not drawn) [Compound 947874]
≤ 100 | ≤ 100 | IC50 [1, 5]: 100 to 1000 nM; IC50 [2, 6]: ≤ 100 nM | CCC1(c2cccc(S(=O)(=O)C(C)C)c2)C2=C(CC(C)(C)NC2=O)Nc2n[nH]c(C)c21 (stereo not drawn) [Compound 947876]
 |  | IC50 [1, 7]: ≤ 100 nM; IC50 [2, 8]: ≤ 100 nM | Cc1csc(S(=O)(=O)N2CCC3(CC2)C2=C(CC(C)(C)CC2=O)Nc2n[nH]cc23)n1 [Compound 947897]
 |  | IC50 [1, 7]: 100 to 1000 nM; IC50 [2, 8]: ≤ 100 nM | Cn1cc(S(=O)(=O)N2CCC3(CC2)C2=C(CC(C)(C)CC2=O)Nc2n[nH]cc23)nn1 [Compound 947898]
 |  | IC50 [1, 7]: ≤ 100 nM; IC50 [2, 8]: ≤ 100 nM | Cc1ncc(S(=O)(=O)N2CCC3(CC2)C2=C(CC(C)(C)CC2=O)Nc2n[nH]cc23)s1 [Compound 947899]
 |  | IC50 [1, 7]: ≤ 100 nM; IC50 [2, 8]: ≤ 100 nM | CC1(C)CC(=O)C2=C(C1)Nc1n[nH]cc1C21CCN(S(=O)(=O)c2ccc3c(c2)OCCO3)CC1 [Compound 947900]
 |  | IC50 [1, 7]: ≤ 100 nM; IC50 [2, 8]: ≤ 100 nM | CC1(C)CC(=O)C2=C(C1)Nc1n[nH]cc1C21CCN(S(=O)(=O)c2cccc3ccncc23)CC1 [Compound 947901]
 |  | IC50 [1, 7]: ≤ 100 nM; IC50 [2, 8]: ≤ 100 nM | CC1(C)CC(=O)C2=C(C1)Nc1n[nH]cc1C21CCN(S(=O)(=O)c2ccc(C(F)(F)F)cn2)CC1 [Compound 947902]
 |  | IC50 [1, 7]: ≤ 100 nM; IC50 [2, 8]: ≤ 100 nM | CC1(C)CC(=O)C2=C(C1)Nc1n[nH]cc1C21CCN(S(=O)(=O)c2cnn(CCF)c2)CC1 [Compound 947903]
 |  | IC50 [1, 7]: ≤ 100 nM; IC50 [2, 8]: ≤ 100 nM | CC1(C)CC(=O)C2=C(C1)Nc1n[nH]cc1C21CCN(S(=O)(=O)c2cnn(-c3ccccc3)c2)CC1 [Compound 947904]
100 to 1000 | ≤ 100 |  | CCC1(c2cccc(-c3ccnn3C)c2)C2=C(CC(C)(COC)NC2=O)Nc2n[nH]cc21 (stereo not drawn) [Compound 947905]
> 5000 | 1000 to 5000 |  | CCC1(c2cccc(-c3ccnn3C)c2)C2=C(CC(C)(COC)NC2=O)Nc2n[nH]cc21 (stereo not drawn) [Compound 947907]
> 5000 | 1000 to 5000 |  | CC[C@@]1(c2cccc(-c3ccnn3C)c2)C2=C(C[C@@](C)(COC)NC2=O)Nc2n[nH]cc21 [Compound 947908]
≤ 100 | ≤ 100 |  | CC[C@]1(c2cccc(-c3ccncc3C)c2)C2=C(C[C@@]3(CCCOC3)NC2=O)Nc2n[nH]cc21 [Compound 947910]
≤ 100 | ≤ 100 |  | CC[C@@]1(c2cccc(-c3ccncc3C)c2)C2=C(C[C@@]3(CCCOC3)NC2=O)Nc2n[nH]cc21 [Compound 947911]
> 5000 | 100 to 1000 |  | CCC1(c2cccc(-c3ccnn3C)c2)C2=C(CC3(CCOC3)NC2=O)Nc2n[nH]cc21 (stereo not drawn) [Compound 948014]
> 5000 | > 5000 |  | CCC1(c2cccc(-c3ccnn3C)c2)C2=C(CC3(CCOC3)NC2=O)Nc2n[nH]cc21 (stereo not drawn) [Compound 948016]
≤ 100 | ≤ 100 |  | CC[C@]1(c2cccc(-c3ccnn3C)c2)C2=C(CC3(CCCC3)NC2=O)Nc2n[nH]cc21 [Compound 948018]
> 5000 | 1000 to 5000 |  | CC[C@@]1(c2cccc(-c3ccnn3C)c2)C2=C(CC3(CCCC3)NC2=O)Nc2n[nH]cc21 [Compound 948019]
100 to 1000 | 100 to 1000 |  | CCC1(c2cccc(-c3ccncc3Cl)c2)C2=C(CC(C)(C)NC2=O)Nc2n[nH]cc21 (stereo not drawn) [Compound 948020]
> 5000 | 100 to 1000 |  | CCC1(c2cccc(-c3ccncc3C)c2)C2=C(CC3(CCCC3)NC2=O)Nc2n[nH]cc21 (stereo not drawn) [Compound 948021]
